Literature values as cited in patent US6509030B2, “Cultured fish carotenoid and polyphenol added feed for improving fish body color tone and fish meat brilliance” (Toshiyuki Sakiura, priority 2000, dated 2003).

chemical stability, acidic (acidic): very unstable
chemical stability, basic (basic): Unstable
chemical stability, neutral (neutral): Unstable
Compound: CC1=C(/C=C/C(C)=C/C=C/C(C)=C/C=C/C=C(C)/C=C/C=C(C)/C=C/C2=C(C)C(=O)[C@@H](O)CC2(C)C)C(C)(C)C[C@H](O)C1=O [Asthaxanthine, asthaxanthine]
